Reference: patent US11582989B2, “Stress management in livestock” (Charles Sturt University, priority 2013, dated 2023)
Read-outs that look alike come from different tables or passages of the source.

Assays:
C57B16/Ola male mice [1] = details: potassium bromide 250 mg/L in drinking water for 7 days
Experimental: (§1) A model system was established to induce stress in rodents by repeated behavioural testing using the AnyMaze™ rodent behavioural monitoring system. […] At the end of 7 days animals were subjected to a number of behavioural tests to assess level of stress. Weight gain was also analysed in the treatment group by recording body weight over the initial 7 day period.
(§2) C57B16/Ola male mice at 5 weeks of age were purchased from MAS Client Services, Monash University, Melbourne, Australia. Animals were weighed at the start of the test period and daily for the duration of testing.
(§3) Animals were weighed 3 times during the experiment (7 days). To initiate a mildly stressful situation, animals were exposed to novel arena, parallel rod and tremor tests using the mouse AnyMaze™ system (AnyMaze™, Stoelting, U.S.A.).

[2] = sheep, 120 mg/kg
Experimental: (§4) NaBr solution was administered through the cephalic vein using a 21 gauge needle over a period of 1 minute. Sheep were restrained in a seated position. Blood samples were collected at 0, 1, 5, 10, 15, 20 and 30 min and then at 1, 2, 3, 4, 6, 8, 10, 12, 24 h. Samples thereafter were collected at 12 h intervals to 240 h then at 24 h intervals to 336 h. A final sample was taken at 528 h. For each sample, the initial 2 mL of blood collected was discarded and a sterile syringe used to withdraw 5 mL of blood which was then placed into a plain separator blood tube (Vacuette: Greiner Bio-one). The cannulas were flushed with 3 mL of 5% heparinised saline after each collection. Each blood sample was left to stand for 30 min before centrifugation at 2000 g for 5 min. Serum was harvested and stored at −20° C. until analysis.
(§5) KBr solution was administered via an orogastric tube, then flushed with 500 mL water. Blood samples were collected at 0, 1, 2, 3, 4, 6, 8, 10, 12, 24 h, then at 12 h intervals to 240 h, then at 24 h intervals to 336 h. A final sample was taken at 504 h. When collecting blood samples at 1 h through to 10 h the rumen was auscultated, over the caudo-dorsal blind sack, to determine if the high salt load affected rumen motility.

C57B16/Ola male mice [3] = experiment: Novel arena test, freezing response episodes (AnyMaze); assay type: in vivo; details: potassium bromide 250 mg/L in drinking water for 7 days, vs normal drinking water
Experimental: Animals were placed in the centre of an open arena which was unfamiliar to them and their rate and range of movement tracked by digital recognition software. Distance, speed and time spent immobile were analysed using the AnyMaze™ software. Results were compared statistically using SPSS™.

[4] = sheep
Experimental: as §4, §5
Absorbance was measured with a spectrophotometer at 440 nm.

[5] = Weight gain under mildly stressful management conditions; assay type: in vivo, mice; details: potassium bromide 250 mg/L in drinking water, 7 days, mild stress, vs control
Experimental: as §1, §2, §3

[6] = Podell and Fenner, 1993; cited from earlier work
[7] = cited from earlier work
[8] = horse (Raidal and Edwards, 2008); cited from earlier work
[9] = Weight gain of Merino ewe lambs after mulesing and tail docking; assay type: in vivo
[10] = 300 mg/kg LW oral bromide immediately prior to procedure, n=20

## Br [bromide]
C57B16/Ola male mice [1]
  signs of ataxia: no signs of ataxia
C57B16/Ola male mice [1]; vs normal drinking water
  parallel rod touches: significantly more touches
[2]; IV and PO groups
  adverse reactions: No adverse reactions were noted
[2]; IV
  duration of tranquilising effect post-injection: 1 to 2 h
  tranquilising effect (subjective observation): mild tranquilising effect
[2]; PO group
  neurological effects: no discernable neurological effects
[2]; PO group, auscultated 1 h to 10 h
  rumen motility: no observed alteration in rumen motility
C57B16/Ola male mice [3]
  freezing response episodes in novel arena test: trend towards decreased freezing response episodes
[4]; IV
  t½: 16.2 days
[4]; PO
  absorption following PO administration: absorbed rapidly
  half-life (t½): approximately 14 days
[4]; PO 120 mg/kg, for 14 d
  serum Br concentration range: 200 to 400 mg/L
[5]
  weight gain: increased weight gain
[6]
  anticonvulsant range (Br concentration): 1.0 to 2.0 mg/mL
[7]; dog (Trepanier and Babish, 1995)
  t½: 12 to 24 days
[7]; dog (Trepanier and Babish, 1995b)
  bioavailability: 40%
[8]
  estimated bioavailability: 32-38%
  t½: approximately 3 d
[9]; 300 mg/kg LW oral bromide
  mean weight gain between day 7 and 14: 1.80 ± 0.30 kg
[9]; [10]
  mean live weight on day 51: 22.17 ± 0.86 kg
  mean weight gain after 51 days: 8.52 ± 0.57 kg
[9]; 300 mg/kg LW oral bromide, first seven days
  Day 1-7 mean weight change: -0.564 ± 1.29 kg
[9]; 300 mg/kg LW oral, after 14 days
  weight gain compared to untreated counterparts: enhanced weight gain
[9]; over 51 days
  live weight gain: 0.16 kg per head per day
[9]; over the 51 days of the trial
  weight gain per head per day: 0.57
[9]; vs control, over 51 days
  increase in production gain: 11%

## [Br-].[K+] [potassium bromide]
C57B16/Ola male mice [3]
  freezing response episodes in novel arena test: trend was towards decreased freezing episodes
[5]
  weight gain: significant weight gain
[9]; 300 mg/kg LW oral at time of mulesing and tail docking, over 51 days
  weight gain compared to untreated counterparts: trend towards increased weight gain
